Experiments:
[1] = test system: encephalitogenic lymphocytes; assay: Chemokine-induced adhesion of murine encephalitogenic T cells to ICAM-1; assay type: cell-based, murine (SJL mice); conditions: NT control in the same cell
Description: (§1) Adhesion was performed on purified integrin ligands and was evaluated as reported in Constantin G. et al., Immunity, 16, 759-769, 2000. Briefly, primary naïve lymphocytes, polymorphonuclear neutrophils (PMNs) or monocytes were isolated form healthy donors. In other experiments, murine autoreactive T cells were obtained from SJL mice immunized with PLP139-151 as described (Piccio L. et al., J. Immunol. 168, 1940-1949, 2002). Cells were resuspended at 4×10^6/ml in PBS, CaCl2, MgCl2 1 mM, 10% FCS, pH 7.2. Adhesion assays were performed on eighteen well glass slides coated overnight at 4° C. with ligands for CR3 (fibrinogen) or LFA-1 (ICAM-1). 20 μl of cell suspension were added to the wells and stimulated at 37° C. with 5 μl of agonists prior to washing, fixation and computer-assisted enumeration of bound cells.
(§2) Integrin activation was measured as induction of rapid adhesion triggered by the classical chemoattractant N-formyl-L-methionyl-L-leucyl-phenylalanine (fMLP) (100 nM) or by the CC chemokine MIP3β (CCL19, 1 μM). PMNs and monocytes were triggered to adhere to fibrinogen (CR3 ligand); naive human lymphocytes or murine encephalitogenic T cells were triggered to adhere to ICAM-1 (LFA-1 ligand). Triggered adhesion was evaluated after 2 min of stimulation under static conditions. The cells were pretreated at 37° C. for 30-60 min with the indicated concentrations of the test compound. Results are expressed as percentage of inhibition over control (=100%) and are the mean of three experiments in the case of human leukocytes. Results are expressed as mean counts and are the mean counts±S.D of three experiments and are the mean of three experiments in the case of murine encephalitogenic lymphocytes.
Chemokines trigger rapid arrest of lymphocytes in blood vessels through pertussis toxin-sensitive G protein coupled receptors. […] Autoreactive lymphocytes were then stimulated with 1 μM CCL19 (MIP-3beta) for 3 min.

PMNs = assay: Chemoattractant-induced rapid adhesion of PMNs to fibrinogen (CR3 ligand); assay type: cell-based; conditions: Homo sapiens, read-out: Inhibition of Adhesion (%) PMNs (fMLP) (converted); for inhibition at 25 µM: [cpd] 25 μM; for inhibition at 50 µM: [cpd] 50 μM; for inhibition at 100 µM: [cpd] 100 μM
Description: as §1, §2
(§3) Integrin activation was measured as induction of rapid adhesion triggered by the “classical” chemoattractant fMLP (100 nM) or by the CC chemokine MIP3β(CCL19, 1 μM). PMNs were triggered to adhere to fibrinogen (CR3 ligand); lymphocytes were triggered to adhere to ICAM-1 (LFA-1 ligand).

Lymphocytes = assay: Chemokine-induced rapid adhesion of lymphocytes to ICAM-1 (LFA-1 ligand); assay type: cell-based; conditions: Homo sapiens, Lymphocyte, read-out: Inhibition of Adhesion (%) Lymphocytes (MIP3-β) (converted); for inhibition at 25 µM: [cpd] 25 μM; for inhibition at 50 µM: [cpd] 50 μM; for inhibition at 100 µM: [cpd] 100 μM
Description: as §1, §2, §3

SMILES | Chemokine-induced Adhesion in encephalitogenic lymphocytes, Mean counts ± S.D., in absence of MIP3-β stimulation ([1]; [cpd] 5 μM) | Chemokine-induced Adhesion in encephalitogenic lymphocytes, Mean counts ± S.D., in presence of MIP3-β stimulation ([1]; [cpd] 5 μM) | Chemokine-induced Adhesion in encephalitogenic lymphocytes, Mean counts ± S.D., in absence of MIP3-β stimulation ([1]; [cpd] 50 μM) | Chemokine-induced Adhesion in encephalitogenic lymphocytes, Mean counts ± S.D., in presence of MIP3-β stimulation ([1]; [cpd] 50 μM) | inhibition at 25 µM (PMNs) | inhibition at 50 µM (PMNs) | inhibition at 100 µM (PMNs) | inhibition at 25 µM (Lymphocytes) | inhibition at 50 µM (Lymphocytes) | inhibition at 100 µM (Lymphocytes) | Chemokine-induced Adhesion in encephalitogenic lymphocytes, Mean counts ± S.D., in absence of MIP3-β stimulation ([1]; [cpd] 1 μM) | Chemokine-induced Adhesion in encephalitogenic lymphocytes, Mean counts ± S.D., in presence of MIP3-β stimulation ([1]; [cpd] 1 μM)
CCCn1c(C#N)c(-c2ccccc2)c2cc(OC)c(OC)cc21 [Example 50] | 81.7 ± 11.9 | 124.5 ± 8.1 | 62.0 ± 4.0 | 92.0 ± 3.0 | – | – | – | – | – | – | – | –
COC(=O)c1c(-c2ccc(OC)cc2)c2cc(OC)c(OC)cc2n1CCN1CCCC1 [Example 52] | 31.8 ± 3.1 | 103.2 ± 10.2 | 24.9 ± 12.8 | 82.3 ± 8.1 | 0.8% | 11% | 6.1% | 45.9% | 53.5% | 58.9% | 51.9 ± 3.9 | 118.9 ± 4.0
COc1ccc(-c2c(C#N)n(CCN3CCOCC3)c3cc(OC)c(OC)cc23)cc1 [Example 56] | 64.1 ± 9.9 | 92.3 ± 2.3 | 49.7 ± 3.9 | 79.4 ± 12.1 | 3.4% | 11.6% | 8.7% | 0% | 12.6% | 72.8% | – | –
COc1ccc(-c2c3n(c4cc(OC)c(OC)cc24)CCN(S(=O)(=O)C(C)C)C3)cc1 [Example 68] | 62.3 ± 9.0 | 102.8 ± 5.5 | 33.5 ± 6.0 | 74.3 ± 3.9 | – | – | – | – | – | – | – | –
COc1ccc(-c2c3n(c4cc(OC)c(OC)cc24)CCOC3)cc1 [Example 76] | – | – | – | – | 25.6% | 35.7% | 66.3% | 30.1% | 40.3% | 48.3% | – | –
CCOC(=O)c1[nH]c2cc(OC)c(OC)cc2c1-c1ccncc1 [Example 81] | 56.2 ± 11.1 | 84.5 ± 8.8 | 41.3 ± 3.6 | 99.2 ± 5.0 | 14.4% | 0.8% | 0% | 4.5% | 12.7% | 34.9% | – | –

From patent publication US20080317857A1, “V-Atpase Inhibitors of Use in the Treatment of Septic Shock” (Brane Discovery S.r.l., priority 2005, published 2008)
